This is an account of results in patent US20180028498A1, “A PHARMACEUTICAL COMPOSITION FOR THE PARENTERAL ADMINISTRATION OF MELATONIN, AND A PROCESS FOR ITS PREPARATION” (INDUSTRIA FARMACEUTICA GALENICA SENESE S.R.L., priority 2015, published 2018).

SMILES strings stand for the structures.

For data set [1] the following is noted: cited from earlier work.
The nature of data set [2]: Solubility / maximum concentration of melatonin in solvent. In kind it is physicochemical. Conditions: physiological saline solution, no excipients, co-solvents or diluents. The text has this: There are moreover disclosed in the literature injectable formulations of melatonin, that are in general solutions of melatonin in ethanol or in propylene glycol, then diluted with water. As a matter of fact, melatonin is known to be a substance that dissolves in aqueous media with great difficulties.
The present pharmaceutical compositions in the form of an aqueous solution, thanks to the process of preparation of the invention described in detail in the following, may contain, dissolved in aqueous solution, amounts of melatonin that are relatively high and suitable for the dosages required in medical treatments; the concentration of melatonin in the present compositions is indeed comprised between 0.2 and 0.4 mg/ml, this latter being the maximum value of concentration obtained for the melatonin in the present aqueous compositions, in the absence of any excipients, co-solvents or diluents different from the physiological saline solution.
A pharmaceutical dissolver of suitable size was deaerated by insufflation of filtered nitrogen, then the dissolver was charged with water for injections at 85° C., to fill approximately 80% of the inner volume of the dissolver. After cooling water at 50° C., sodium chloride was added in such amount as to obtain a final concentration of 9mg/ml; the so obtained solution was deaerated by bubbling filtered nitrogen. […]

A further data set relates to pain. Conditions: in combination with other drugs, endotracheal intubation in infants; cited from earlier work.
A further data set concerns chronic lung disease. Conditions: infants; cited from earlier work.
The test system of data set [3] is free radicals (pro-inflammatory cytokines). Conditions: ventilated infants with bronchopulmonary dysplasia; cited from earlier work.

Take `COc1ccc2[nH]cc(CCNC(C)=O)c2c1` [melatonin, N-acetyl-5-methoxytriptamine]: the solubility in ethanol entry in data set [1] (ethanol) is on record as “fairly good solubility”. For the same compound, the solubility in water result in data set [1] (water) is listed as “close to zero”. For the same compound, the “maximum value of concentration obtained in aqueous composition” value in data set [2] stood at 0.4 mg/mL. In addition, the “efficacy as an analgesic” value with pain is “demonstrated the efficacy”. For the same compound, the “efficacy in chronic lung disease” value in the data set on chronic lung disease was “same efficacy has been demonstrated”. In addition, the “reduction of production of free radicals (pro-inflammatory cytokines)” value in data set [3] is recorded as “effective in reducing the production of these molecules”.
